The source of these data is PMC6934184, “Selective DNA-PKcs inhibition extends the therapeutic index of localized radiotherapy and chemotherapy” (The Journal of Clinical Investigation, 2019).

This assay addresses T1, PLK1 (Homo sapiens, UniProt P53350).
T1 construct: purchased Thermo Fisher Scientific (Life Technologies) SelectScreen
Kind of assay: SelectScreen Z'LYTE. It counts as biochemical. An outline of the steps: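 NU5455 was profiled across the SelectScreen Broad panel of kinase activity and binding assays. Z'LYTE reactions such as CSF1R ran at apparent Km ATP, while the Adapta CAMK1 assay used ATP listed as 10. Values are given as percent.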

T1 sequence (P53350 whole entry): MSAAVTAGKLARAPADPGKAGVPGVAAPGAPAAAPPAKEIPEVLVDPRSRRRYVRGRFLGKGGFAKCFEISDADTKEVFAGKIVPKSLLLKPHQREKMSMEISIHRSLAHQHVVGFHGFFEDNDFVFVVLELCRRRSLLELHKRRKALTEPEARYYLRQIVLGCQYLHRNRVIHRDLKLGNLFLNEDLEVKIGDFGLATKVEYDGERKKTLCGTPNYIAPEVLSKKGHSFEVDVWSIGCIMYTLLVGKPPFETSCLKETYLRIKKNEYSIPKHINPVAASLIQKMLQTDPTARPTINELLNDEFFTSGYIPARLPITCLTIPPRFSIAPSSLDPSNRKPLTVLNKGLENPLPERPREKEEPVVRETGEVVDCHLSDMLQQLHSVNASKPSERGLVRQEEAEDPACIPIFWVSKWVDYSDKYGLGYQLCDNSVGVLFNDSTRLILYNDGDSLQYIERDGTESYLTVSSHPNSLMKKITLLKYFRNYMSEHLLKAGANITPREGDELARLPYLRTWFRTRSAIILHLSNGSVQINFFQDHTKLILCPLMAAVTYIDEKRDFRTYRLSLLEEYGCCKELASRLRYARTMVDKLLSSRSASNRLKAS

The term inhibition denotes the share of the control response that was lost under treatment. Compound `CN(C(=O)CN1CCOCC1)c1ccc2sc3c(-c4cccc5c(=O)cc(N6CC7CCC(C6)O7)oc45)cccc3c2c1` [NU5455] showed an inhibition at 1 µM of 9.2%.
